Literature values as cited in Sander's compilation of Henry's law constants.
Where “and” joins values, the source holds several entries; their conditions need not be identical. Identical values can stand only once.

Assay: Henry solubility constant Hcp at 298.15 K (mol/(m3 Pa))
Details: cited value
[1] = reference: Burkholder et al. (2015)
[2] = reference: Burkholder et al. (2019)
[3] = reference: Fogg and Sangster (2003)
[4] = reference: Sander et al. (2006)
[5] = reference: Sander et al. (2011)
[6] = reference: Gaffney and Senum (1984)
[7] = reference: Barcelo and Hennion (1997)
[8] = reference: Plyasunov et al. (2006)

## OBr [hypobromous acid]
[1]
  Henry solubility constant Hcp: > 13
[2]
  Henry solubility constant Hcp: > 13

## OO [hydrogen peroxide]
reference: Brockbank (2013)
  Henry solubility constant Hcp: 950
[1]
  Henry solubility constant Hcp: 860
[2]
  Henry solubility constant Hcp: 860
[3]
  Henry solubility constant Hcp: 980
[4]
  Henry solubility constant Hcp: 760
[5]
  Henry solubility constant Hcp: 830

## O=[N+]([O-])c1cccc(O)c1 [3-nitrophenol]
[6]
  Henry solubility constant Hcp: 4900

## [O]N=O [nitrogen dioxide]
[1]
  Henry solubility constant Hcp: 0.00012
[2]
  Henry solubility constant Hcp: 0.00012
[4]
  Henry solubility constant Hcp: 0.00014
[5]
  Henry solubility constant Hcp: 0.00012
reference: Schwartz and White (1981)
  Henry solubility constant Hcp: 0.00012

## c1ccc2ccccc2c1 [naphthalene]
reference: Brockbank (2013)
  Henry solubility constant Hcp: 0.021
[3]
  Henry solubility constant Hcp: 0.022
reference: Goldstein (1982)
  Henry solubility constant Hcp: 0.021
reference: McCarty (1980)
  Henry solubility constant Hcp: 0.027

## CCCCN [1-butanamine]
reference: Brockbank (2013)
  Henry solubility constant Hcp: 0.54
[1]
  Henry solubility constant Hcp: 0.56
[2]
  Henry solubility constant Hcp: 0.56

## COP(=S)(OC)Oc1ccc([N+](=O)[O-])c(C)c1 [fenitrothion]
[7]
  Henry solubility constant Hcp: 2.7

## CC(C)NC(=O)N1CC(=O)N(c2cc(Cl)cc(Cl)c2)C1=O [iprodione]
[7]
  Henry solubility constant Hcp: 710

## C=CCCCCC [1-heptene]
reference: Brockbank (2013)
  Henry solubility constant Hcp: 2e-05

## CCCCCCCCCCCCCCCCO [1-hexadecanol]
reference: Abraham (1984)
  Henry solubility constant Hcp: 0.35

## CC(C)COC(=O)C(C)C [2-methylpropyl 2-methylpropanoate]
reference: Brockbank (2013)
  Henry solubility constant Hcp: 0.0074

## CBr [bromomethane]
reference: Brockbank (2013)
  Henry solubility constant Hcp: 0.0015
[1]
  Henry solubility constant Hcp: 0.0017
[2]
  Henry solubility constant Hcp: 0.0015
reference: Goldstein (1982)
  Henry solubility constant Hcp: 4.4e-05
[4]
  Henry solubility constant Hcp: 0.0017
[5]
  Henry solubility constant Hcp: 0.0017

## CCCCCCCCCCCO [1-undecanol]
reference: Brockbank (2013)
  Henry solubility constant Hcp: 0.14

## [Cl][Hg][Cl] [mercury dichloride]
reference: Kanefke (2008)
  Henry solubility constant Hcp: 13000
reference: Lindqvist and Rodhe (1985)
  Henry solubility constant Hcp: 14000
reference: Shon et al. (2005)
  Henry solubility constant Hcp: 240000
reference: WHO (1990)
  Henry solubility constant Hcp: 14000

## N#CCCCCC#N [hexanedinitrile]
[8]
  Henry solubility constant Hcp: 1500

## [Br][Hg][Br] [mercury dibromide]
reference: Kanefke (2008)
  Henry solubility constant Hcp: 960

## CCCCCCI [1-iodohexane]
reference: Brockbank (2013)
  Henry solubility constant Hcp: 0.00034

## Cc1ccc(NC(=O)N(C)C)cc1Cl [chlortoluron]
[7]
  Henry solubility constant Hcp: 190

## CCCC(C)O (configuration not stated) [2-pentanol]
reference: Brockbank (2013)
  Henry solubility constant Hcp: 0.67

## Cc1ccccc1O [1-hydroxy-2-methylbenzene]
reference: Brockbank (2013)
  Henry solubility constant Hcp: 6.7
[6]
  Henry solubility constant Hcp: 8.2
reference: Howard (1989)
  Henry solubility constant Hcp: 6.2

## CC(C)C#N [2-methylpropanenitrile]
reference: Brockbank (2013)
  Henry solubility constant Hcp: 0.11
[8]
  Henry solubility constant Hcp: 0.1

## N#CCCCC#N [pentanedinitrile]
[8]
  Henry solubility constant Hcp: 780

## CCC1CCCCC1 [ethylcyclohexane]
reference: Brockbank (2013)
  Henry solubility constant Hcp: 2.1e-05

## S=C=S [carbon disulfide]
[1]
  Henry solubility constant Hcp: 0.00061
[2]
  Henry solubility constant Hcp: 0.00061
reference: Goldstein (1982)
  Henry solubility constant Hcp: 0.00075
[4]
  Henry solubility constant Hcp: 0.00061
[5]
  Henry solubility constant Hcp: 0.00061

## CCCO [1-propanol]
reference: Brockbank (2013)
  Henry solubility constant Hcp: 1.5
[1]
  Henry solubility constant Hcp: 1.4
[2]
  Henry solubility constant Hcp: 1.4
reference: Dohnal et al. (2006)
  Henry solubility constant Hcp: 1.4
[3]
  Henry solubility constant Hcp: 1.4
[4]
  Henry solubility constant Hcp: 1.3
[5]
  Henry solubility constant Hcp: 1.4

## COC(=O)C(C)C [methyl 2-methylpropanoate]
reference: Brockbank (2013)
  Henry solubility constant Hcp: 0.026

## COC(=O)c1ccccc1S(=O)(=O)NC(=O)N(C)c1nc(C)nc(OC)n1 [tribenuron-methyl]
reference: MacBean (2012b)
  Henry solubility constant Hcp: 9.7e+07

## CC(=O)OCCC(C)C [3-methylbutyl ethanoate]
reference: Brockbank (2013)
  Henry solubility constant Hcp: 0.021
reference: Goldstein (1982)
  Henry solubility constant Hcp: 0.024
reference: Meynier et al. (2003)
  Henry solubility constant Hcp: 0.017

## COP(=S)(OC)Oc1ccc([N+](=O)[O-])cc1 [methylparathion]
[7]
  Henry solubility constant Hcp: 0.47

## [CH3][Hg][CH3] [dimethylmercury]
reference: Abraham et al. (2008)
  Henry solubility constant Hcp: 0.0021
reference: WHO (1990)
  Henry solubility constant Hcp: 0.0013

## CCCCCl [1-chlorobutane]
reference: Brockbank (2013)
  Henry solubility constant Hcp: 0.00056

## CNC=O [N-methylmethanamide]
reference: Brockbank (2013)
  Henry solubility constant Hcp: 1400
[1]
  Henry solubility constant Hcp: 1400
[2]
  Henry solubility constant Hcp: 1400

## CCCCC(CC)COC(=O)c1ccccc1C(=O)OCC(CC)CCCC (configuration not stated) [bis(2-ethylhexyl)-phthalate]
reference: Petrasek et al. (1983)
  Henry solubility constant Hcp: 82

## CCSSCC [diethyl disulfide]
[1]
  Henry solubility constant Hcp: 0.0037
[2]
  Henry solubility constant Hcp: 0.0037

## CN [methanamine]
[1]
  Henry solubility constant Hcp: 0.89
[2]
  Henry solubility constant Hcp: 0.89

## CCCC[N+](=O)[O-] [1-nitrobutane]
reference: Brockbank (2013)
  Henry solubility constant Hcp: 0.076

## c1ccc2ncccc2c1 [benzo[b]pyridine]
reference: Goldstein (1982)
  Henry solubility constant Hcp: 37

## CNC(=O)ON=C(SC)C(=O)N(C)C [oxamyl]
[7]
  Henry solubility constant Hcp: 38

## CCCCCCCO [1-heptanol]
reference: Brockbank (2013)
  Henry solubility constant Hcp: 0.53

## ClC1=C(Cl)[C@]2(Cl)C3C(Cl)C(Cl)CC3[C@@]1(Cl)C2(Cl)Cl (some centres not stated) [chlordane]
[7]
  Henry solubility constant Hcp: 0.0011

## CN1CCCC1=O [N-methyl-2-pyrrolidone]
reference: Brockbank (2013)
  Henry solubility constant Hcp: 3100

## OCC(F)(F)C(F)(F)F [2,2,3,3,3-pentafluoro-1-propanol]
[1]
  Henry solubility constant Hcp: 0.14
[2]
  Henry solubility constant Hcp: 0.14
[5]
  Henry solubility constant Hcp: 0.14

## Cc1cccc(O)c1C [1-hydroxy-2,3-dimethylbenzene]
reference: Brockbank (2013)
  Henry solubility constant Hcp: 6.7

## Nc1ccccc1Cl [1-amino-2-chlorobenzene]
reference: Brockbank (2013)
  Henry solubility constant Hcp: 1.9

## C=CC1(C)OC(=O)N(c2cc(Cl)cc(Cl)c2)C1=O (configuration not stated) [vinclozoline]
[7]
  Henry solubility constant Hcp: 7.6

## C=CCCCCCCC [1-nonene]
reference: Brockbank (2013)
  Henry solubility constant Hcp: 1.1e-05

## CS(=O)(=O)c1cc(C(F)(F)F)ccc1C(=O)c1cnoc1C1CC1 [isoxaflutole]
reference: MacBean (2012b)
  Henry solubility constant Hcp: 53000

## Oc1ccc(Cl)cc1Cl [2,4-dichlorophenol]
reference: Goldstein (1982)
  Henry solubility constant Hcp: 1.5

## CC(C)CO [2-methyl-1-propanol]
reference: Brockbank (2013)
  Henry solubility constant Hcp: 0.8
[1]
  Henry solubility constant Hcp: 0.83
[2]
  Henry solubility constant Hcp: 0.83
[4]
  Henry solubility constant Hcp: 1
[5]
  Henry solubility constant Hcp: 1

## Cc1cccs1 [2-methylthiophene]
reference: Brockbank (2013)
  Henry solubility constant Hcp: 0.0041

## ClCCl [dichloromethane]
reference: Brockbank (2013)
  Henry solubility constant Hcp: 0.0037
[1]
  Henry solubility constant Hcp: 0.0039
[2]
  Henry solubility constant Hcp: 0.0039
reference: Dilling (1977)
  Henry solubility constant Hcp: 0.0037
reference: Dilling et al. (1975)
  Henry solubility constant Hcp: 0.0037
reference: Goldstein (1982)
  Henry solubility constant Hcp: 0.0031
reference: Harrison et al. (1993)
  Henry solubility constant Hcp: 0.0042 and 0.0034
[4]
  Henry solubility constant Hcp: 0.0036
[5]
  Henry solubility constant Hcp: 0.0036

## FC(F)(F)C(F)(F)C(F)(F)C(F)(F)C(F)(F)F [dodecafluoropentane]
reference: Brockbank (2013)
  Henry solubility constant Hcp: 4.6e-08

## CCCN(CCC)C(=O)SCC [S-ethyl dipropylthiocarbamate]
[7]
  Henry solubility constant Hcp: 0.01

## BrC(Br)Br [tribromomethane]
reference: Brockbank (2013)
  Henry solubility constant Hcp: 0.018
[1]
  Henry solubility constant Hcp: 0.017
[2]
  Henry solubility constant Hcp: 0.017
reference: Goldstein (1982)
  Henry solubility constant Hcp: 0.018
reference: Nicholson et al. (1984)
  Henry solubility constant Hcp: 0.017
[4]
  Henry solubility constant Hcp: 0.017
[5]
  Henry solubility constant Hcp: 0.017

## c1ccc2[nH]ccc2c1 [indole]
reference: Howard and Meylan (1997)
  Henry solubility constant Hcp: 15

## N#Cc1ccccc1 [benzenenitrile]
reference: Brockbank (2013)
  Henry solubility constant Hcp: 0.35

## CCCCC#N [pentanenitrile]
reference: Brockbank (2013)
  Henry solubility constant Hcp: 0.16
[8]
  Henry solubility constant Hcp: 0.14

## CCOC(C)(C)CC [2-ethoxy-2-methylbutane]
reference: Brockbank (2013)
  Henry solubility constant Hcp: 0.005
